In the supplement of paper PMC10307832:

Columns and labels:
Test in all cases: relative viability (nuclei count vs DMSO), 5 days (fraction); higher = more cells survive
Wnt-C59 + Phenformin = compound: CC1=NC=CC(=C1)C2=CC=C(C=C2)CC(=O)NC3=CC=C(C=C3)C4=CN=CC=C4 [Wnt-C59] + N=C(N)NC(=N)NCCc1ccccc1 [Phenformin] (partner 250 µM)
Summary of the method: (§1)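 One day after seeding in 1536-well plates, lung cancer cell lines were dosed by pin tool. Dosing was either single-drug or a fixed anchor-drug dose plus five library-drug doses (not always all listed) in √10 steps. After 5 days, nuclei were stained in one fix-and-stain step and counted on 4× images, and relative viability is the nuclei count of treated wells over that of vehicle wells, given as the median of duplicate plates.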

Lapatinib + Dasatinib = compound: CS(=O)(=O)CCNCc1ccc(-c2ccc3ncnc(Nc4ccc(OCc5cccc(F)c5)c(Cl)c4)c3c2)o1 [Lapatinib] + Cc1nc(Nc2ncc(C(=O)Nc3c(C)cccc3Cl)s2)cc(N2CCN(CCO)CC2)n1 [Dasatinib] (partner 0.075 µM)
Summary of the method: as §1

Wnt-C59 + Linsitinib = compound: CC1=NC=CC(=C1)C2=CC=C(C=C2)CC(=O)NC3=CC=C(C=C3)C4=CN=CC=C4 [Wnt-C59] + C[C@]1(O)C[C@@H](c2nc(-c3ccc4ccc(-c5ccccc5)nc4c3)c3c(N)nccn32)C1 [Linsitinib] (partner 1 µM)
Summary of the method: as §1

UMC-11 was tested, and the relative viability (Wnt-C59 + Phenformin; first compound 0.001 µM) was 0.305, the relative viability (Wnt-C59 + Phenformin; first compound 0.01 µM) was 0.282 and the relative viability (Wnt-C59 + Phenformin; first compound 0.03162 µM) was 0.328. The relative viability (Wnt-C59 + Phenformin; first compound 0.1 µM) was 0.32, the relative viability (Lapatinib + Dasatinib; first compound 0.02 µM) was 0.45 and the relative viability (Lapatinib + Dasatinib; first compound 0.06325 µM) was 0.404. The relative viability (Lapatinib + Dasatinib; first compound 0.2 µM) was 0.52, the relative viability (Lapatinib + Dasatinib; first compound 0.6325 µM) was 0.453 and the relative viability (Lapatinib + Dasatinib; first compound 2 µM) was 0.421. For the same cell line, the relative viability (Wnt-C59 + Linsitinib; first compound 0.001 µM) was 0.96, the relative viability (Wnt-C59 + Linsitinib; first compound 0.01 µM) was 0.977 and the relative viability (Wnt-C59 + Linsitinib; first compound 0.03162 µM) was 1.04. For the same cell line, the relative viability (Wnt-C59 + Linsitinib; first compound 0.1 µM) was 0.991.
